Columns and labels:
[1] = system: leiomyoma; experiment: Realtime PCR mRNA expression in leiomyoma, GnRHa therapy vs untreated; type: in vivo, human
Description: (§1) Tissues. Portions of leiomyoma and matched myometrium were collected from premenopausal women (N=6) who were scheduled to undergo hysterectomy for indications related to symptomatic leiomyomas. Three of the patients received GnRHa therapy for three months prior to surgery. […] To maintain a standard, all leiomyomas selected for this study were between 2 to 3 cm in diameter. […] The tissues were collected at the University of Florida affiliated Shands Hospital with prior approval obtained from the Institutional Review Board.
(§2) Quantitative RealTime PCR. Realtime PCR was utilized for verification of 10 differentially expressed and regulated genes identified in leiomyoma and myometrium as well as LSMC and MSMC from untreated and GnRHa-treated cohorts. The selection of these genes was based not only on their expression values (up or downregulation), but classification and biological functions important to leiomyoma growth and regression, regulation by ovarian steroids, GnRHa and TGF-β. They are IL-11, CITED2, Nur77, EGR3, TGIF, TIEG, p27, p57, GAS-1 and GPRK5 representing cytokines, transcription factors, cell cycle regulators and signal transduction.
(§3) Portions of leiomyoma and matched myometrium were collected from premenopausal women (N=27) who were scheduled to undergo hysterectomy for symptomatic uterine leiomyomas at the University of Florida affiliated Shands Hospital. Of these patients seven received GnRHa therapy for a period of three months prior to surgery. […] To maintain a standard, leiomyomas used in this study were 2 to 3 cm in diameter. Prior approval was obtained from the University of Florida Institutional Review Board for the experimental protocol of this study.
as §3, with “patients,” for “patients”
(§4) Realtime PCR. Briefly, total RNA was isolated from leiomyoma and matched myometrium using Trizol Reagent (INVITROGEN, Carlsbad, Calif.) and complimentary DNA was generated from 2 μg of total RNA using Taqman reverse transcription reagent. The newly synthesized cDNA was used for PCR performed in 96-well optical reaction plates with cDNA equivalent to 100 ng RNA in a volume of 50 μl reaction containing 1× Taqman Universal Master Mix, optimized concentrations of FAM-labeled probe and specific forward and reverse primer for FMOD selected from Assay on Demand (APPLIED BIOSYSTEMS). Controls included RNA subjected to RT-PCR without reverse transcriptase and PCR with water replacing cDNA.

[2] = system: myometrium; experiment: Realtime PCR mRNA expression in myometrium, GnRHa therapy vs untreated; type: in vivo, human
Description: as §1, §2, §3
as §3, with “patients,” for “patients”
as §4

[3] = system: leiomyoma smooth muscle cells (LSMC); experiment: Realtime PCR mRNA expression in treated LSMC; type: cell-based, human
Procedure: Isolation and Culture of Leiomyoma and Myometrial Smooth Muscle Cells. […] Only untreated tissues were used for isolation of LSMC and MSMC. […] LSMC and MSMC were cultured in 6-well plates at an approximate density of 10^6 cells/well in DMEM-supplemented media containing 10% FBS. After reaching visual confluence, the cells were washed in serum-free media and incubated for 24 hrs under serum-free, phenol red-free condition (Chegini, N et al. Mol Hum Reprod, 2002, 8:1071-8).
as §2
Determination of TGF-β1 on global gene expression in LSMC and MSMC. All the materials utilized for this study including isolation of leiomyoma and myometrial cells are identical to those described in detail above. To determine the effect of TGF-β1 on global gene expression in LSMC and MSMC, the cells were cultured in 6-well plates at approximate density of 10^6 cells/well in DMEM-supplemented media containing 10% FBS. […] The cells were then treated with 2.5 ng/ml of TGF-β1 (R & D System, Minneapolis, […].) for 2, 6 and 12 hours. […] The cells were washed and then treated with TGF-β1 (2.5 ng/ml) for 2 hours. Parallel experiments using untreated cells were used as controls including an additional control for TGF-β type II receptor antisense and sense experiments.
Total cellular RNA was isolated from LSMC- and MSMC-treated and untreated controls and subjected to microarray analysis. To maintain standard and allow for comparative analysis, the GeneChips used in this study were utilized, simultaneously processed and their gene expression values were subjected to global normalization and transformation. Following these unsupervised assessments the coefficient of variation was calculated for each probe set across all the chips used in this study, and the selected gene expression values of this study were independently subjected to supervised learning including R programming analysis and ANOVA with false discovery rate selected at p<0.001 (Moustakas, A. Immunol Lett, 2002, 82:85-91; Verrecchia, F. et al. J Biol Chem, 2001, 276:17058-17062). The genes identified in these cohorts were analyzed for functional annotation and visualized using Database for Annotation, Visualization, and Integrated Discovery (DAVID) software with integrated GoCharts. Following the analysis, we selected 12 of the differentially expressed and regulated genes, including 10 identified and validated in leiomyoma and myometrium from untreated and GnRHa-treated cohorts, as well as LSMC and MSMC treated in vitro with GnRHa, for validation in response to TGF-β-time dependent action using Realtime PCR. They include IL-11, EGR3, CITED2, TIEG, TGIF, Nur77, p27, p57, GAS-1 and GPRK5. In addition, the expression of Runx1 and Runx2, transcription factors that interact with TGF-β receptor signaling pathways (Zavadil, J. et al. Proc Natl Acad Sci USA, 2001, 98:6686-6691), was validated in LSMC and MSMC as well as in leiomyoma and myometrium from GnRHa-treated and untreated cohorts. Detail description of the materials and methods for Realtime PCR as well as data analysis is provided in Chegini, N. et al. J Soc Gynecol Investig, 2003, 10:161-71.
Isolation and Culture of Leiomyoma and Myometrial Smooth Muscle Cells. Leiomyoma and myometrial smooth muscle cells (LSMC and MSMC) were isolated and cultured as previously described (Chegini, N. et al. Mol Hum Reprod, 2002, 8:1071-1078). […]

[4] = GnRHa therapy three months (N=7) vs untreated
[5] = GnRHa therapy three months vs untreated
[6] = GnRHa 0.1 μM, 2, 6 and 12 hours

SMILES: CCNC(=O)[C@@H]1CCCN1C(=O)[C@H](CCCNC(=N)N)NC(=O)[C@H](CC(C)C)NC(=O)[C@@H](CC(C)C)NC(=O)[C@H](Cc1ccc(O)cc1)NC(=O)[C@H](CO)NC(=O)[C@H](Cc1c[nH]c2ccccc12)NC(=O)[C@H](Cc1c[nH]cn1)NC(=O)[C@@H]1CCC(=O)N1 [GnRHa, leuprolide acetate]
- FMOD mRNA expression in leiomyoma [1, 4]: significantly reduced
- CCN2 mRNA expression in leiomyoma [1, 5]: alters
- CCN3 mRNA expression in leiomyoma [1, 5]: without affecting
- CCN4 mRNA expression in leiomyoma [1, 5]: without affecting
- fibulin-1C mRNA expression in leiomyoma [1, 5]: without affecting
- CITED2 expression in leiomyoma ([1]; GnRHa therapy vs untreated): increased
- GPRK5 expression in leiomyoma ([1]; GnRHa therapy vs untreated): inhibits
- IL-11 expression in leiomyoma ([1]; GnRHa therapy vs untreated): suppressed
- Nur77 expression in leiomyoma ([1]; GnRHa therapy vs untreated): significant elevation
- FMOD mRNA expression in myometrium [2, 4]: significantly reduced
- CCN3 mRNA expression in myometrium [2, 5]: significant reduction
- CCN4 mRNA expression in myometrium [2, 5]: significant reduction
- S100A4 mRNA expression in myometrium [2, 5]: significant reduction
- CITED2 expression in myometrium ([2]; GnRHa therapy vs untreated): increased
- GPRK5 expression in myometrium ([2]; GnRHa therapy vs untreated): inhibits
- IL-11 expression in myometrium ([2]; GnRHa therapy vs untreated): suppressed
- Nur77 expression in myometrium ([2]; GnRHa therapy vs untreated): significant elevation
- CITED2 expression in LSMC [3, 6]: inhibiting
- GPRK5 expression in LSMC [3, 6]: inhibits
- CCN2 mRNA expression in LSMC ([3]; GnRHa 0.1 μM, 2, 6 and 12 hrs): inhibited
- CCN3 mRNA expression in LSMC ([3]; GnRHa 0.1 μM, 2, 6 and 12 hrs): inhibited
- CCN4 mRNA expression in LSMC ([3]; GnRHa 0.1 μM, 2, 6 and 12 hrs): inhibited
- S100A4 mRNA expression in LSMC ([3]; GnRHa 0.1 μM, 2, 6 and 12 hrs): inhibited
- fibulin-1C mRNA expression in LSMC ([3]; GnRHa 0.1 μM, 2, 6 and 12 hrs): inhibited
- FMOD expression in LSMC ([3]; GnRHa 0.1 μM, 2 and 6 hrs): no significant effect
- FMOD expression in LSMC ([3]; GnRHa 0.1 μM, 12 hrs): inhibited
- IL-11 expression in LSMC ([3]; GnRHa 0.1 μM, within 2 to 6 hours, control levels after 12 hours): increased
- Nur77 expression in LSMC ([3]; GnRHa 0.1 μM, subsequently fell below untreated levels): rapid induction
